Consider 13 compounds from paper PMC9594048, “Targeting a Multidrug-Resistant Pathogen: First Generation Antagonists of Burkholderia cenocepacia’s BC2L-C Lectin” (ACS Chemical Biology, 2022).

The target of data set [1] is T1, BC2L-C-Nt (rBC2L-CN2) (Burkholderia cenocepacia, UniProt B4EH86). Kind of data set: Surface plasmon resonance (SPR) affinity on BC2L-C-Nt-coated chip. As to conditions: 25 °C, rBC2L-CN2 immobilized on CM5 chip, multi-cycle affinity; SD from duplicates. It counts as binding. How it is done: Experiments were performed on a BIACORE X100 instrument (GE Healthcare) at 25 °C in running buffer 10 mM HEPES pH 7.4, 150 mM NaCl, and 0.05% Tween 20, adjusted to include 8% DMSO when required. rBC2L-CN2 was immobilized onto CM5 chips (BIACORE) following the amine coupling procedure detailed in the Supporting Information. The analytes were dissolved in the running buffer at increasing concentrations (range: 3.28–3500 μM) and subjected to multi-cycle affinity studies (300 s association, 300 s dissociation, flow rate 5 μL/min). Injections of compounds at increasing concentrations onto the immobilized rBC2L-CN2 were followed by regeneration of the surface: 10 mM fucose in running buffer and then running buffer at 5 μL/min (100 and 150 s, respectively) after each analyte association/dissociation. For the higher concentrations, regeneration was secured by performing one or more runs replacing analyte by running buffer. Duplicates were performed for all ligands. Binding affinity (KD) was measured after subtracting the channel 1 reference (no immobilized protein) and subtracting a blank injection (running buffer—zero analyte concentration). Data evaluation and curve fitting were performed using the provided BIACORE X100 evaluation software (version 2.0). The protein-coated chip was stored at 4 °C in running buffer and was functional up to 8 weeks after fabrication, as proven by experimentation. […]
3.2. Surface plasmon Resonance
Experiments were performed on a BIACORE X100 instrument (GE Healthcare) at 25 °C in running buffer 10 mM HEPES pH 7.4, 150 mM NaCl and 0.05% Tween 20, adjusted to include 8% DMSO when indicated. rBC2L-CN2 was immobilized onto CM5 chips (BIACORE) following the amine […]
• Activation of the chip by three injections of a NHS/EDC mixture at 10 μL/min for 540s, until a minimum of 300 RU was observed on both channels.
• Injection of rBC2L-CN2 (0.5 mg/mL) dissolved in 10 mM sodium acetate pH 4.5 onto channel 2 (contact time of 540s, flow rate of 10 μL/min), until a minimum of 7000 RU was […]
• Inactivation of both channels by injecting a 1M ethanolamine (pH 8.5) solution at 5 μL/min for 1080s, achieving over 400 and 7000 RU for channel 1 and 2, respectively.
The analytes were dissolved in the running buffer at increasing concentrations (range: 3.28 − 3500 μM) and subjected to multi-cycle affinity studies (300s association, 300s dissociation, flow rate 5 μL/min). Injections of compounds at increasing concentrations onto the immobilized rBC2L-CN2 were followed by regeneration of the surface: 10 mM fucose in running buffer, then running buffer at 5 μL/min (100s and 150s, respectively) after each analyte association/dissociation. For the higher concentrations, regeneration was secured by performing one or more runs replacing analyte by running buffer. Duplicates were performed for all ligands. Binding affinity (KD) was measured after subtracting the channel 1 reference (no immobilized protein) and subtracting of a blank injection (running buffer - zero analyte concentration). Data evaluation and curve fitting was performed using the provided BIACORE X100 evaluation software (version 2.0). […]

The target in data set [2] is T1, BC2L-C-Nt (rBC2L-CN2). Put plainly: Isothermal titration calorimetry (ITC). To be noted: for Kd: 25 °C. Type of data set: binding. How it is done:
All experiments were performed at 25 °C with an ITC200 isothermal titration calorimeter (Microcal-Malvern Panalytical, Orsay, France). The protein rBC2L-CN2 and its ligands were dissolved in a buffer composed of 20 mM Tris HCl pH 7.0 and 100 mM NaCl. The 200 μL sample cell containing rBC2L-CN (concentrations ranging from 200 to 400 μM) was subjected to injections of ligand solution: 20 to 39 injections of 1 μL or 70 injections of 0.5 μL (5 to 50 mM, chosen depending on the ligand) at intervals of 100, 120, or 200 s, while stirring at 850 rpm. Control experiments were performed by repeating the same protocol, but injecting the ligand into buffer solution. The supplied software Origin 7 or MicroCal PEAQ-ITC was used to fit the experimental data to a theoretical titration curve allowing the determination of affinity.
3. Ligand evaluation materials and methods
3.1. Isothermal Titration Calorimetry
All experiments were performed at 25 °C with an ITC200 isothermal titration calorimeter (Microcal - Malvern Panalytical, Orsay, France). The protein rBC2L -CN2 and its ligands were dissolved in a buffer composed of 20 mM Tris HCl pH 7.0 and 100 mM NaCl. The 200 µL sample cell containing rBC2L-CN (concentrations ranging from 200 to 400 µM) was subjected to injections of ligand solution: 20 to 39 injections of 1 µL or 70 injections of 0.5 µL (5 to 50 mM, chosen depending on the ligand) at intervals of 100, 120 or 200s while stirring at 850 rpm. Control experiments were performed by repeating the same protocol, but injecting the ligand into buffer solution. The supplied software Origin 7 or MicroCal PEAQ-ITC was used to fit the experimental data to a t heoretical titration curve allowing the determination of affinity (i.e., association constant, K a), binding enthalpy (∆H), and stoichiometry (n). Values for free energy change (∆G) and entropy contributions (T∆S) […]
1.K-1. For experiments in ligand excess, the stoichiometry was fixed to 1. […]

The nature of data set [3]: Solubility (qualitative remark). As to conditions: prevented affinity evaluation by ITC. It counts as physicochemical. A general note: ITC needs no label: the signal is the heat of the interaction.
Data set [4] concerns the target T1, BC2L-C-Nt (rBC2L-CN2). Kind of data set: biochemical. Type of data set: binding. To be noted: for Tonset / Tm1 / Tm2: protein 14.3 μM, ligand 143 μM; for Tonset: SD from duplicates; for Tm1: first thermal event, protein alone 82.2 °C; for Tm2: main thermal event, protein alone 84.5 °C; for ΔTm2: shift of main thermal event vs protein alone. How it is done:
Experiments were performed on a Microcal PEAQ-DSC instrument (Malvern Panalytical, Orsay, France). A buffer composed of 20 mM Tris HCl pH 7.0 and 100 mM NaCl was used to dilute the protein rBC2L-CN2 and its ligands to concentrations 14.3 and 143 μM, respectively. Samples of 250 μL were loaded, while the reference cell was filled with the matching buffer (aforementioned buffer, ligands when relevant). […] The data were acquired on “Low” feedback mode. The supplied software MicroCal PEAQ-DSC Software 1.53 was used to fit the experimental data. […] The profile obtained was fitted with a “NonTwoState” model, accounting for two thermal events. Each experiment was performed in duplicates, and their averages were calculated by the software.
3. […]
3.3. Differential Scanning Calorimetry
Experiments were performed on a Microcal PEAQ-DSC instrument (Malvern Panalytical, Orsay, […]

[5] abbreviates: 20 mM Tris HCl pH 7.0, 100 mM NaCl, SD from duplicates.

Molecules are shown by their SMILES. Where two headings read alike, the source gives them in different places.

T1 sequence (B4EH86 entry or part of it): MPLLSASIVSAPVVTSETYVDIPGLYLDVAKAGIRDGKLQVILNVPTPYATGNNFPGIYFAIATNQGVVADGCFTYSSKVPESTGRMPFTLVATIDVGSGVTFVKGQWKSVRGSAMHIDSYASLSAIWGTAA

On to `C[C@@H]1O[C@H](NC(=O)c2ccc(C(C)(C)CN)cc2)[C@@H](O)[C@H](O)[C@@H]1O` [8a], for which the figures for the Kd at BC2L-C-Nt (rBC2L-CN2) [1] and at BC2L-C-Nt (rBC2L-CN2) [2] (setting [5]) were 940 ± 10 µM and 2550 ± 1000 µM, respectively.

With `CNCc1ccc(C(=O)N[C@H]2O[C@@H](C)[C@@H](O)[C@@H](O)[C@@H]2O)cc1` [8b], the Kd at BC2L-C-Nt (rBC2L-CN2) [1] stood at 1570 ± 60 µM; at BC2L-C-Nt (rBC2L-CN2) [2] (setting [5]), 3660 ± 210 µM.

For the compound `C[C@@H]1O[C@H](NC(=O)c2ccc(-c3cccc(N)c3)o2)[C@@H](O)[C@H](O)[C@@H]1O` [8c], the Kd on BC2L-C-Nt (rBC2L-CN2) [1] stood at 2360 ± 970 µM. For the same compound, in data set [3], the solubility entry was “very low and poor”.

On to `C[C@@H]1O[C@H](NC(=O)c2ccc3cc[nH]c3c2)[C@@H](O)[C@H](O)[C@@H]1O` [8d], for which the values for the Kd on BC2L-C-Nt (rBC2L-CN2) [1] and at BC2L-C-Nt (rBC2L-CN2) [2] (setting [5]) were 3420 ± 220 µM and 3490 ± 1300 µM, respectively.

Compound `C[C@@H]1O[C@H](NC(=O)c2ccc3[nH]ccc3c2)[C@@H](O)[C@H](O)[C@@H]1O` [8e] gave a dissociation constant (Kd) on BC2L-C-Nt (rBC2L-CN2) [1] of 1420 ± 20 µM. Further, the “activity compared with methyl-fucoside 13 (ITC)” value at BC2L-C-Nt (rBC2L-CN2) [2] (ITC KD compared with […]) was “better activity than methyl-fucoside 13”.

As to `C[C@@H]1O[C@H](n2cc(-c3ccc(C(C)(C)CN)cc3)nn2)[C@@H](O)[C@H](O)[C@@H]1O` [12a], the Kd at BC2L-C-Nt (rBC2L-CN2) [1] came out at 1190 ± 50 µM; on BC2L-C-Nt (rBC2L-CN2) [2] (setting [5]), 2490 ± 60 µM.

Take `CNCc1ccc(-c2cn([C@H]3O[C@@H](C)[C@@H](O)[C@@H](O)[C@@H]3O)nn2)cc1` [12b]: the values for the Kd at BC2L-C-Nt (rBC2L-CN2) [1] and on BC2L-C-Nt (rBC2L-CN2) [2] (setting [5]) were 2450 ± 20 µM and 6250 ± 720 µM, respectively.

`C[C@@H]1O[C@H](C#Cc2ccc(C(C)(C)CN)cc2)[C@@H](O)[C@H](O)[C@@H]1O` [22a]: the Kd was found to be 1330 ± 150 µM on BC2L-C-Nt (rBC2L-CN2) [1], 281 µM at BC2L-C-Nt (rBC2L-CN2) [2] and 280 ± 10 µM on BC2L-C-Nt (rBC2L-CN2) [2] (setting [5]). The compound further showed a Tonset on BC2L-C-Nt (rBC2L-CN2) [4] of 73.29 ± 1.54 °C. Further, the Tm1 at BC2L-C-Nt (rBC2L-CN2) [4] was 82.43 ± 0.02 °C. The Tm2 at BC2L-C-Nt (rBC2L-CN2) [4] came to 84.71 ± 0.01 °C. Further, the figures for the ΔTm at 143 µM at BC2L-C-Nt (rBC2L-CN2) [4] (read-out: ΔTm1) and on BC2L-C-Nt (rBC2L-CN2) [4] (read-out: ΔTm2) were 0.21 °C and 0.17 °C, respectively. Further, at BC2L-C-Nt (rBC2L-CN2) [2] (relative to […]), the “affinity increase from αMeFuc (ITC)” value is on record as about 10 fold.

Regarding `CNCc1ccc(C#C[C@H]2O[C@@H](C)[C@@H](O)[C@@H](O)[C@@H]2O)cc1` [22b], the Kd was 7850 ± 3390 µM at BC2L-C-Nt (rBC2L-CN2) [1] and 1240 ± 70 µM at BC2L-C-Nt (rBC2L-CN2) [2] (setting [5]).

As for `C[C@@H]1O[C@H](C#CC(O)c2ccc3ncccc3c2)[C@@H](O)[C@H](O)[C@@H]1O` (stereo partly shown) [22f], the values for the Kd on BC2L-C-Nt (rBC2L-CN2) [1] and on BC2L-C-Nt (rBC2L-CN2) [2] were 301 ± 1 µM and 490 µM, respectively.

As for `C[C@@H]1O[C@H](C#Cc2ccc(CNC(=N)N)cc2)[C@@H](O)[C@H](O)[C@@H]1O` [22g], the Kd on BC2L-C-Nt (rBC2L-CN2) [1] came out at 1300 ± 600 µM; on BC2L-C-Nt (rBC2L-CN2) [2] (setting [5]), 910 ± 30 µM.

As for `CNCc1ccc(/C=C/[C@H]2O[C@@H](C)[C@@H](O)[C@@H](O)[C@@H]2O)cc1` [28b], the results for the Kd on BC2L-C-Nt (rBC2L-CN2) [1] and on BC2L-C-Nt (rBC2L-CN2) [2] (setting [5]) were 1020 ± 20 µM and 3370 ± 400 µM, respectively.

For the compound `CC(=O)N[C@H]1C(O)O[C@H](CO)[C@@H](O)[C@@H]1O[C@@H]1O[C@H](CO)[C@H](O)[C@H](O)[C@H]1O[C@@H]1O[C@@H](C)[C@@H](O)[C@@H](O)[C@@H]1O` (stereo partly shown) [H-type 1 trisaccharide, Fucα(1–2)Galβ(1–3)GlcNAc], at BC2L-C-Nt (rBC2L-CN2) [4], the Tonset came out at 74.09 ± 0.26 °C, the Tm1 amounted to 82.65 ± 0.01 °C, the Tm2 stood at 84.92 ± 0.01 °C and the ΔTm2 result is “+0.38 °C”. In addition, on BC2L-C-Nt (rBC2L-CN2) [4] (shift of first thermal event vs protein alone), the ΔTm1 came out at 0.44 °C. Also, the ΔTm2 at BC2L-C-Nt (rBC2L-CN2) [4] (listed as H-type 1) turned out to be 0.38 ± 0.01 °C.

A word on the Kd: it is a measure of binding affinity in units of concentration. Low readings indicate tighter binding, high ones weaker binding.
